Laboratory results from patent US4443436A, “C-20-Modified macrolide derivatives of the macrolide antibiotics tylosin, desmycosin, macrocin, and lactenocin” (Eli Lilly and Company, priority 1982, dated 1984).
In brackets after ≈: the same amount, converted by molar mass. Read-outs that look alike come from different tables or passages of the source.

Experiments:
Mycoplasma hyorhinis = test: MIC, broth-dilution microtiter test, Mycoplasma hyorhinis; type: cell-based; conditions: Mycoplasma hyorhinis, broth-dilution microtiter
Description: (§1) The MIC's in Table X were obtained using conventional broth-dilution microtiter tests.

[1] = tested on: Staphylococcus epidermidis EPI2; test: MIC, standard agar-dilution assay, Staphylococcus epidermidis EPI2; type: cell-based
[2] = tested on: Staphylococcus aureus S13E; test: MIC, standard agar-dilution assay, Staphylococcus aureus S13E; type: cell-based
[3] = tested on: Staphylococcus aureus X1.1; test: MIC, standard agar-dilution assay, Staphylococcus aureus X1.1; type: cell-based
[4] = tested on: Pasteurella multocida 17E; test: MIC, broth-dilution microtiter test, Pasteurella multocida 17E; type: cell-based
Description: as §1

[5] = tested on: Streptococcus pyogenes C203; test: MIC, standard agar-dilution assay, Streptococcus pyogenes C203; type: cell-based
[6] = tested on: Pasteurella multocida 60A; test: MIC, broth-dilution microtiter test, Pasteurella multocida 60A; type: cell-based
Description: as §1

[7] = tested on: Haemophilus influenzae Holt; test: MIC, standard agar-dilution assay, Haemophilus influenzae Holt; type: cell-based; conditions: Haemophilus influenzae Holt, ampicillin-sensitive strain
Mycoplasma synoviae = test: MIC, broth-dilution microtiter test, Mycoplasma synoviae; type: cell-based
Description: as §1

Streptococcus Group 9960 = test: MIC, standard agar-dilution assay, Streptococcus Group 9960; type: cell-based; conditions: Streptococcus Group 9960, agar dilution
Streptococcus bovis 80 = test: MIC, broth-dilution microtiter test, Streptococcus bovis 80; type: cell-based; conditions: Streptococcus bovis 80, broth-dilution microtiter
Description: as §1

[8] = tested on: Staphylococcus aureus X400; test: MIC, standard agar-dilution assay, Staphylococcus aureus X400; type: cell-based
[9] = tested on: Pasteurella hemolytica 22C; test: MIC, broth-dilution microtiter test, Pasteurella hemolytica 22C; type: cell-based
Description: as §1

[10] = tested on: Haemophilus influenzae R252; test: MIC, standard agar-dilution assay, Haemophilus influenzae R252; type: cell-based
[11] = tested on: Staphylococcus epidermidis EPI1; test: MIC, standard agar-dilution assay, Staphylococcus epidermidis EPI1; type: cell-based
[12] = tested on: Streptococcus pneumoniae Park I; test: microbe, parasite or virus in culture; type: cell-based
Mycoplasma gallisepticum = test: MIC, broth-dilution microtiter test, Mycoplasma gallisepticum; type: cell-based
Description: as §1

Mycoplasma hyopneumoniae = test: MIC, broth-dilution microtiter test, Mycoplasma hyopneumoniae; type: cell-based; conditions: Mycoplasma hyopneumoniae, broth-dilution microtiter
Description: as §1

Staphylococcus aureus = test: MIC, broth-dilution microtiter test, Staphylococcus aureus; type: cell-based
Description: as §1

[13] = tested on: Streptococcus pyogenes C203; test: In vivo protection of mice experimentally infected with S. pyogenes C203; conditions: mice, doses given 1 and 4 hours post-infection; for ED50: Streptococcus pyogenes
Description: The C-20 modified derivatives of this invention have shown in vivo antimicrobial activity against experimentally-induced infections in laboratory animals. When two doses of test compound were administered to mice experimentally infected with S. pyogenes C203, the activity observed was measured as an ED50 value [effective dose in mg/kg to protect 50% of the test animals: see Warren Wick, et al., J. Bacteriol. 81, 233-235 (1961)].

[14] = tested on: Streptococcus Group D X66; test: MIC, standard agar-dilution assay, Streptococcus Group D X66; type: cell-based; conditions: Streptococcus Group D X66, agar dilution
[15] = tested on: Staphylococcus aureus V41; test: MIC, standard agar-dilution assay, Staphylococcus aureus V41; type: cell-based
[16] = Staphylococcus epidermidis EPI2, agar dilution
[17] = Staphylococcus aureus S13E, agar dilution
[18] = Staphylococcus aureus X1.1, agar dilution
[19] = Pasteurella multocida 17E, bovine isolate, broth-dilution microtiter
[20] = Streptococcus pyogenes C203, agar dilution
[21] = Pasteurella multocida 60A, avian isolate, broth-dilution microtiter
[22] = Mycoplasma synoviae, broth-dilution microtiter
[23] = Staphylococcus aureus X400, methicillin-resistant strain, agar dilution
[24] = Pasteurella hemolytica 22C, broth-dilution microtiter
[25] = Haemophilus influenzae R252, ampicillin-resistant strain, agar dilution
[26] = Staphylococcus epidermidis EPI1, agar dilution
[27] = Streptococcus pneumoniae Park I, agar dilution
[28] = Mycoplasma gallisepticum, broth-dilution microtiter
[29] = Staphylococcus aureus V41, penicillin-resistant strain, agar dilution
[30] = Streptococcus equinus, read-out: MIC
[31] = Staphylococcus epidermidis, EPI1
[32] = Mesomycoplasma hyopneumoniae, read-out: MIC

For CCC1OC(=O)CC(O)C(C)C(OC2OC(C)C(O)C(N(C)C)C2O)C(CCOc2cccc(Oc3ccccc3)c2)CC(C)C(=O)C=CC(C)=CC1COC1OC(C)C(O)C(OC)C1OC (stereo not drawn) [Compound 48, 20-DH-20-O-(m-Phenoxyphenyl)desmycosin], the MIC (Mycoplasma hyorhinis) was 12.5 µg/mL (≈ 13.3 µM), the MIC [1, 16] was 0.25 µg/mL (≈ 0.265 µM) and the MIC [2, 17] was 0.5 µg/mL (≈ 0.531 µM). For the same molecule, the MIC [3, 18] was 0.5 µg/mL (≈ 0.531 µM), the MIC [4, 19] was 25 µg/mL (≈ 26.5 µM) and the MIC [5, 20] was 0.25 µg/mL (≈ 0.265 µM). The MIC [6, 21] was 25 µg/mL (≈ 26.5 µM), the MIC ([7]; agar dilution) was 16 µg/mL (≈ 17 µM) and the MIC (Mycoplasma synoviae; [22]) was 0.19 µg/mL (≈ 0.202 µM). For the same molecule, the MIC (Streptococcus Group 9960) was 1 µg/mL (≈ 1.06 µM), the MIC (Streptococcus bovis 80) was 0.09 µg/mL (≈ 0.0955 µM) and the MIC [8, 23] was 0.5 µg/mL (≈ 0.531 µM). For the same molecule, the MIC [9, 24] was 25 µg/mL (≈ 26.5 µM), the MIC [10, 25] was 16 µg/mL (≈ 17 µM) and the MIC [11, 26] was 0.5 µg/mL (≈ 0.531 µM). It also gave an MIC [12, 27] of 0.25 µg/mL (≈ 0.265 µM), an MIC (Mycoplasma gallisepticum; [28]) of under 0.05 µg/mL and an MIC (Mycoplasma hyopneumoniae) of 1.56 µg/mL (≈ 1.66 µM). The MIC (Staphylococcus aureus; broth-dilution microtiter) was 0.78 µg/mL (≈ 0.828 µM), the “ED50, Oral” value ([13]; oral) was 35 mg/kg × 2 and the “ED50, Subcutaneous” value ([13]; subcutaneous) was over 10 mg/kg × 2. It also gave an MIC [14] of 0.5 µg/mL (≈ 0.531 µM) and an MIC [15, 29] of 0.5 µg/mL (≈ 0.531 µM).

With CCC1OC(=O)CC(O)C(C)C(OC2OC(C)C(O)C(N(C)C)C2O)C(CCOC(C(F)(F)F)C(F)(F)F)CC(C)C(=O)C=CC(C)=CC1COC1OC(C)C(O)C(OC)C1OC (stereo not drawn) [Compound 32, 20-DH-20-O-[2,2,2-trifluoro-1-(trifluoromethyl)ethyl]desmycosin] the MIC (Mycoplasma hyorhinis; read-out: MIC) was over 50 µg/mL, the MIC ([1]; Staphylococcus epidermidis, EPI2) was 0.25 µg/mL (≈ 0.271 µM) and the MIC ([2]; Staphylococcus aureus, S13E) was 0.5 µg/mL (≈ 0.541 µM). For the same molecule, the MIC ([3]; Staphylococcus aureus, X1.1) was 0.5 µg/mL (≈ 0.541 µM), the MIC ([4]; Pasteurella multocida, 17E) was 50 µg/mL (≈ 54.1 µM) and the MIC ([5]; Streptococcus pyogenes, C203) was 0.5 µg/mL (≈ 0.541 µM). It also gave an MIC ([6]; Pasteurella multocida, 60A) of 50 µg/mL (≈ 54.1 µM), an MIC ([7]; read-out: MIC) of 64 µg/mL (≈ 69.3 µM) and an MIC (Mycoplasma synoviae; Mycoplasmopsis synoviae) of 1.56 µg/mL (≈ 1.69 µM). It also gave an MIC (Streptococcus Group 9960; GROUP9960, read-out: MIC) of 32 µg/mL (≈ 34.6 µM), an MIC (Streptococcus bovis 80; [30]) of 12.5 µg/mL (≈ 13.5 µM) and an MIC ([8]; Staphylococcus aureus, X400) of 0.5 µg/mL (≈ 0.541 µM). For the same molecule, the MIC ([9]; Pasteurella, 22C) was 50 µg/mL (≈ 54.1 µM), the MIC ([10]; Haemophilus influenzae, R252) was 128 µg/mL (≈ 139 µM) and the MIC [11, 31] was 0.5 µg/mL (≈ 0.541 µM). The MIC ([12]; Streptococcus pneumoniae) was 4 µg/mL (≈ 4.33 µM), the MIC (Mycoplasma gallisepticum; Mycoplasmoides gallisepticum, Mycoplasma gallisepticum, broth-dilution microtiter, read-out: MIC) was 0.19 µg/mL (≈ 0.206 µM) and the MIC (Mycoplasma hyopneumoniae; [32]) was over 25 µg/mL. For the same molecule, the MIC (Staphylococcus aureus) was 0.78 µg/mL (≈ 0.844 µM), the ED50 ([13]; C203, sc, subcutaneous, read-out: ED50, Subcutaneous) was over 10 mg/kg and the ED50 ([13]; C203, oral, read-out: ED50, Oral) was 25 mg/kg. For the same molecule, the MIC ([14]; read-out: MIC) was 32 µg/mL (≈ 34.6 µM) and the MIC ([15]; Staphylococcus aureus, V41) was 0.5 µg/mL (≈ 0.541 µM).

CCC1OC(=O)CC(O)C(C)C(OC2OC(C)C(OC(C)=O)C(N(C)C)C2OC(C)=O)C(CCOc2ccccc2)CC(C)C(=O)C=CC(C)=CC1COC1OC(C)C(O)C(OC)C1OC (stereo not drawn) [Compound 68, 20-DH-20-O-Phenyl-2',4'-di-O-acetyldesmycosin] was tested, and the MIC (Mycoplasma hyorhinis) was “-- (Not active at 50 mcg/ml, the highest level tested)”, the MIC [1, 16] was 0.12 µg/mL (≈ 0.128 µM) and the MIC [2, 17] was 0.5 µg/mL (≈ 0.535 µM). The MIC [3, 18] was 0.5 µg/mL (≈ 0.535 µM), the MIC [4, 19] was 25 µg/mL (≈ 26.8 µM) and the MIC [5, 20] was 0.5 µg/mL (≈ 0.535 µM). For the same molecule, the MIC [6, 21] was 25 µg/mL (≈ 26.8 µM), the MIC ([7]; agar dilution) was 32 µg/mL (≈ 34.3 µM) and the MIC (Mycoplasma synoviae; [22]) was 3.12 µg/mL (≈ 3.34 µM). The MIC (Streptococcus Group 9960) was 8 µg/mL (≈ 8.56 µM), the MIC (Streptococcus bovis 80) was 6.25 µg/mL (≈ 6.69 µM) and the MIC [8, 23] was 0.5 µg/mL (≈ 0.535 µM). For the same molecule, the MIC [9, 24] was 25 µg/mL (≈ 26.8 µM), the MIC [10, 25] was 16 µg/mL (≈ 17.1 µM) and the MIC [11, 26] was 0.5 µg/mL (≈ 0.535 µM). For the same molecule, the MIC [12, 27] was 0.5 µg/mL (≈ 0.535 µM), the MIC (Mycoplasma gallisepticum; [28]) was 0.39 µg/mL (≈ 0.418 µM) and the MIC (Mycoplasma hyopneumoniae) was 12.5 µg/mL (≈ 13.4 µM). The MIC (Staphylococcus aureus; broth-dilution microtiter) was 0.39 µg/mL (≈ 0.418 µM), the “ED50, Oral” value ([13]; oral) was 16 mg/kg × 2 and the “ED50, Subcutaneous” value ([13]; subcutaneous) was 2.9 mg/kg × 2. For the same molecule, the MIC [14] was 4 µg/mL (≈ 4.28 µM) and the MIC [15, 29] was 0.5 µg/mL (≈ 0.535 µM).

CCC1OC(=O)CC(O)C(C)C(OC2OC(C)C(OC3CC(C)(O)C(O)C(C)O3)C(N(C)C)C2O)C(CCOC(C(F)(F)F)C(F)(F)F)CC(C)C(=O)C=CC(C)=CC1COC1OC(C)C(O)C(OC)C1OC (stereo not drawn) [Compound 19, 20-DH-20-O-[2,2,2-Trifluoro-1-(trifluormethyl)ethyl]tylosin] was tested, and the MIC (Mycoplasma hyorhinis; read-out: MIC) was over 50 µg/mL, the MIC ([1]; Staphylococcus epidermidis EPI2, agar dilution, read-out: MIC) was 2 µg/mL (≈ 1.87 µM) and the MIC ([2]; Staphylococcus aureus, S13E) was 4 µg/mL (≈ 3.74 µM). The MIC ([3]; Staphylococcus aureus, X1.1) was 4 µg/mL (≈ 3.74 µM), the MIC ([4]; Pasteurella multocida 17E, bovine isolate, broth-dilution microtiter, read-out: MIC) was over 50 µg/mL and the MIC ([5]; Streptococcus pyogenes C203, agar dilution, read-out: MIC) was 8 µg/mL (≈ 7.49 µM). It also gave an MIC ([6]; Pasteurella multocida 60A, avian isolate, broth-dilution microtiter, read-out: MIC) of over 50 µg/mL, an MIC ([7]; read-out: MIC) of over 128 µg/mL and an MIC (Mycoplasma synoviae; Mycoplasmopsis synoviae) of 12.5 µg/mL (≈ 11.7 µM). The MIC (Streptococcus Group 9960; GROUP9960, read-out: MIC) was over 128 µg/mL, the MIC (Streptococcus bovis 80; [30]) was over 50 µg/mL and the MIC ([8]; Staphylococcus aureus, X400) was 4 µg/mL (≈ 3.74 µM). For the same molecule, the MIC ([9]; Pasteurella hemolytica 22C, broth-dilution microtiter, read-out: MIC) was over 50 µg/mL, the MIC ([10]; Haemophilus influenzae R252, ampicillin-resistant strain, read-out: MIC) was over 128 µg/mL and the MIC [11, 31] was 4 µg/mL (≈ 3.74 µM). For the same molecule, the MIC ([12]; Streptococcus pneumoniae Park I, agar dilution, read-out: MIC) was 32 µg/mL (≈ 30 µM), the MIC (Mycoplasma gallisepticum; Mycoplasmoides gallisepticum) was 3.12 µg/mL (≈ 2.92 µM) and the MIC (Mycoplasma hyopneumoniae; [32]) was over 25 µg/mL. The MIC (Staphylococcus aureus) was 12.5 µg/mL (≈ 11.7 µM), the MIC ([14]; read-out: MIC) was over 128 µg/mL and the MIC ([15]; Staphylococcus aureus, V41) was 4 µg/mL (≈ 3.74 µM).
